Test results from ChEMBL document CHEMBL3813616, “Discovery of novel 7-azaindoles as PDK1 inhibitors” (Bioorg Med Chem Lett, 2016).

Columns and labels:
[1] = molecular target: T1, 3-phosphoinositide-dependent protein kinase 1 (Homo sapiens) (UniProt O15530); test: Selectivity ratio of IC50 for PDK1-mediated AKT phosphorylation at Thr308 in human PC3 cells to IC50 for human His6-tagged PDK1; format: cell-based; conditions: PC-3
T1 sequence (whole entry): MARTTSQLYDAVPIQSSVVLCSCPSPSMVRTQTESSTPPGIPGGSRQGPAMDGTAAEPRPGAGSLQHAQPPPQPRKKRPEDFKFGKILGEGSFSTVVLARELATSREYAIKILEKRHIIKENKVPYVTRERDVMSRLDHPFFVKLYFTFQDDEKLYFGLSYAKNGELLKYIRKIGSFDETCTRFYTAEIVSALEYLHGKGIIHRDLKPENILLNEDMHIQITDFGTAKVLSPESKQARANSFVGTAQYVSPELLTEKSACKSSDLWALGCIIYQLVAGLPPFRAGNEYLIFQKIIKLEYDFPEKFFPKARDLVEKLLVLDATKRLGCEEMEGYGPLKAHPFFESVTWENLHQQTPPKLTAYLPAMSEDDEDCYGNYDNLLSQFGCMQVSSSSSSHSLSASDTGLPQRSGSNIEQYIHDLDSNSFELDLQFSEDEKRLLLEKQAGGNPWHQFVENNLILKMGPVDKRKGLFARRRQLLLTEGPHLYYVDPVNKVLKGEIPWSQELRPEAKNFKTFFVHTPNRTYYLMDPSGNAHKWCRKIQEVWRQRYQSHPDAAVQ

MAPK3 (ERK1) = test: Inhibition of human MAPK3 (2 to 379 residues) assessed as enzyme activity at 1 uM using 33P ATP by radioactive filter binding assay; design: scale not given: the % may be the effect or the level left
[2] = molecular target: Serine/threonine-protein kinase Nek7 (Homo sapiens) (UniProt Q8TDX7); test: Inhibition of NEK7 (unknown origin) assessed as enzyme activity at 1 uM using 33P ATP by radioactive filter binding assay; design: scale not given: the % may be the effect or the level left
[3] = molecular target: Tyrosine-protein kinase JAK2 (Homo sapiens) (UniProt O60674); test: Inhibition of JAK2 (unknown origin) assessed as enzyme activity at 1 uM using 33P ATP by radioactive filter binding assay; design: scale not given: the % may be the effect or the level left
[4] = molecular target: Serine/threonine-protein kinase MARK1 (Homo sapiens) (UniProt Q9P0L2); test: Inhibition of human MARK1 (2 to 795 residues) assessed as enzyme activity at 1 uM using 33P ATP by radioactive filter binding assay; design: scale not given: the % may be the effect or the level left
[5] = molecular target: Serine/threonine-protein kinase MARK2 (Homo sapiens) (UniProt Q7KZI7); test: Inhibition of human MARK2 (2 to 691 residues) assessed as enzyme activity at 1 uM using 33P ATP by radioactive filter binding assay; design: scale not given: the % may be the effect or the level left
[6] = molecular target: Misshapen-like kinase 1 (Homo sapiens) (UniProt Q8N4C8); test: Inhibition of human MINK1 (1 to 320 residues) assessed as enzyme activity at 1 uM using 33P ATP by radioactive filter binding assay; design: scale not given: the % may be the effect or the level left
[7] = molecular target: Dual specificity mitogen-activated protein kinase kinase 2 (Homo sapiens) (UniProt P36507); test: Inhibition of human MKK2 (2 to 400 residues) assessed as enzyme activity at 1 uM using 33P ATP by radioactive filter binding assay; design: scale not given: the % may be the effect or the level left
[8] = molecular target: Dual specificity mitogen-activated protein kinase kinase 6 (Homo sapiens) (UniProt P52564); test: Inhibition of human MKK6 (2 to 334 residues) assessed as enzyme activity at 1 uM using 33P ATP by radioactive filter binding assay; design: scale not given: the % may be the effect or the level left
[9] = molecular target: Mitogen-activated protein kinase kinase kinase 9 (Homo sapiens) (UniProt P80192); test: Inhibition of human MLK1 (132 to 413 residues) assessed as enzyme activity at 1 uM using 33P ATP by radioactive filter binding assay; design: scale not given: the % may be the effect or the level left
[10] = molecular target: Mitogen-activated protein kinase kinase kinase 11 (Homo sapiens) (UniProt Q16584); test: Inhibition of human MLK3 (96 to 386 residues) assessed as enzyme activity at 1 uM using 33P ATP by radioactive filter binding assay; design: scale not given: the % may be the effect or the level left
[11] = molecular target: Serine/threonine-protein kinase 33 (Homo sapiens) (UniProt Q9BYT3); test: Inhibition of human STK33 (1 to 514 residues) assessed as enzyme activity at 1 uM using 33P ATP by radioactive filter binding assay; design: scale not given: the % may be the effect or the level left
[12] = molecular target: Serine/threonine-protein kinase tousled-like 1 (Homo sapiens) (UniProt Q9UKI8); test: Inhibition of human TLK1 (1 to 766 residues) assessed as enzyme activity at 1 uM using 33P ATP by radioactive filter binding assay; design: scale not given: the % may be the effect or the level left
[13] = molecular target: High affinity nerve growth factor receptor (Homo sapiens) (UniProt P04629); test: Inhibition of human TrkA (441 to 760 residues) assessed as enzyme activity at 1 uM using 33P ATP by radioactive filter binding assay; design: scale not given: the % may be the effect or the level left
[14] = molecular target: Dual specificity protein kinase TTK (Homo sapiens) (UniProt P33981); test: Inhibition of human TTK (1 to 857 residues) assessed as enzyme activity at 1 uM using 33P ATP by radioactive filter binding assay; design: scale not given: the % may be the effect or the level left
[15] = molecular target: Mitogen-activated protein kinase kinase kinase 5 (Homo sapiens) (UniProt Q99683); test: Inhibition of human ASK1 (670 to 950 residues) assessed as enzyme activity at 1 uM using 33P ATP by radioactive filter binding assay; design: scale not given: the % may be the effect or the level left
[16] = molecular target: Aurora kinase A (Homo sapiens) (UniProt O14965); test: Inhibition of human Aurora A (2 to 403 residues) assessed as enzyme activity at 1 uM using 33P ATP by radioactive filter binding assay; design: scale not given: the % may be the effect or the level left
[17] = molecular target: Serine/threonine-protein kinase BRSK1 (Homo sapiens) (UniProt Q8TDC3); test: Inhibition of human BRSK1 (2 to 778 residues) assessed as enzyme activity at 1 uM using 33P ATP by radioactive filter binding assay; design: scale not given: the % may be the effect or the level left
[18] = molecular target: Death-associated protein kinase 1 (Homo sapiens) (UniProt P53355); test: Inhibition of human DAPK1 (1 to 363 residues) assessed as enzyme activity at 1 uM using 33P ATP by radioactive filter binding assay; design: scale not given: the % may be the effect or the level left
[19] = molecular target: Eukaryotic translation initiation factor 2-alpha kinase 3 (Homo sapiens) (UniProt Q9NZJ5); test: Inhibition of human EIF2AK3 (536 to 1116 residues) assessed as enzyme activity at 1 uM using 33P ATP by radioactive filter binding assay; design: scale not given: the % may be the effect or the level left
[20] = molecular target: Ephrin type-B receptor 1 (Homo sapiens) (UniProt P54762); test: Inhibition of human EPHB1 (565 to 984 residues) assessed as enzyme activity at 1 uM using 33P ATP by radioactive filter binding assay; design: scale not given: the % may be the effect or the level left
[21] = molecular target: Ephrin type-B receptor 4 (Homo sapiens) (UniProt P54760); test: Inhibition of human EPHB4 (561 to 987 residues) assessed as enzyme activity at 1 uM using 33P ATP by radioactive filter binding assay; design: scale not given: the % may be the effect or the level left
[22] = molecular target: Receptor tyrosine-protein kinase erbB-4 (Homo sapiens) (UniProt Q15303); test: Inhibition of human HER4 (706 to 991 residues) assessed as enzyme activity at 1 uM using 33P ATP by radioactive filter binding assay; design: scale not given: the % may be the effect or the level left
[23] = molecular target: Homeodomain-interacting protein kinase 1 (Homo sapiens) (UniProt Q86Z02); test: Inhibition of human HIPK1 (158 to 555 residues) assessed as enzyme activity at 1 uM using 33P ATP by radioactive filter binding assay; design: scale not given: the % may be the effect or the level left

Sequence of Serine/threonine-protein kinase Nek7 (Homo sapiens) (Q8TDX7 whole entry, looked up): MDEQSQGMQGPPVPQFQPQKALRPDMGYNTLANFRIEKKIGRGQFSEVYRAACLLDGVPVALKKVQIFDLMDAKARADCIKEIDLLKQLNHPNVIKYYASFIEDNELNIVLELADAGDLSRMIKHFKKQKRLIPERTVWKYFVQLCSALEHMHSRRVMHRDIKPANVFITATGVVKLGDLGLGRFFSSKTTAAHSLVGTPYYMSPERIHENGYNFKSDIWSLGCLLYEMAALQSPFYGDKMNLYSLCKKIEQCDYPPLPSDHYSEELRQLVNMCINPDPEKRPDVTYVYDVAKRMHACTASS
Sequence of Mitogen-activated protein kinase kinase kinase 5 (Homo sapiens) (Q99683 whole entry, the tested form may be a part): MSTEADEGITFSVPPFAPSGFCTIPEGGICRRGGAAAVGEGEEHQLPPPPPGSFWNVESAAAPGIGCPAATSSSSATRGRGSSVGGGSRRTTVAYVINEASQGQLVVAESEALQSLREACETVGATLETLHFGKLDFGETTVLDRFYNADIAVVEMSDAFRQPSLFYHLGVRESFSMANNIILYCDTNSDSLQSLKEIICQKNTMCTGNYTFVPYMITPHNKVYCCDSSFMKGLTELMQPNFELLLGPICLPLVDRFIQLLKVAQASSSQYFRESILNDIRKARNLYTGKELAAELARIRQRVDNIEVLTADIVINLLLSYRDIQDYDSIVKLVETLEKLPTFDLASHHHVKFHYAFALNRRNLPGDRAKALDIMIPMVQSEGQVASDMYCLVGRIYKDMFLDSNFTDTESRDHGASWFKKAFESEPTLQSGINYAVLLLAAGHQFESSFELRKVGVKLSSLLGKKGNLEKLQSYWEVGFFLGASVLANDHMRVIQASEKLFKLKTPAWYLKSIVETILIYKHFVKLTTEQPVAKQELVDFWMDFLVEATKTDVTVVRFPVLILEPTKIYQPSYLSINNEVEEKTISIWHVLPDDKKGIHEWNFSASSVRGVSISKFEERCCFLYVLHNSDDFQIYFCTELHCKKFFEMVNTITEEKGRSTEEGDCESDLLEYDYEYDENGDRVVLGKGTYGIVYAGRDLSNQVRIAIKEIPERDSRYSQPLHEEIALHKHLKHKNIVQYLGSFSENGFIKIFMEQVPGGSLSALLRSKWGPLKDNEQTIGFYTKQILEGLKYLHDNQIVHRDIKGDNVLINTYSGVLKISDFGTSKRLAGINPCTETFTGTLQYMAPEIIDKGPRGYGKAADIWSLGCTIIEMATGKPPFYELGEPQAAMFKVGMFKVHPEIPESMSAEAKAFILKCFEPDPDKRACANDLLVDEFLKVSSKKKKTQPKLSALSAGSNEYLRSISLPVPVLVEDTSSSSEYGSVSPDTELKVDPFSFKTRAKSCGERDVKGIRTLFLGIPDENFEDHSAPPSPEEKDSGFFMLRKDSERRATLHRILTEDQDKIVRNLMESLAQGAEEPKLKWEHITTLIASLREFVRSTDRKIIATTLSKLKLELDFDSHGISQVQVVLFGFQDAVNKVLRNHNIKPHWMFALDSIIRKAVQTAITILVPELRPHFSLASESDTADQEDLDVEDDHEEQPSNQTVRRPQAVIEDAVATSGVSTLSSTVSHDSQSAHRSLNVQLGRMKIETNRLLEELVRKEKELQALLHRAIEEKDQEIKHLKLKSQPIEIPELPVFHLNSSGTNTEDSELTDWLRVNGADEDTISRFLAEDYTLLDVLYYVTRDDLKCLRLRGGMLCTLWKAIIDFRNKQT
Sequence of Dual specificity protein kinase TTK (Homo sapiens) (P33981 whole entry, the tested form may be a part): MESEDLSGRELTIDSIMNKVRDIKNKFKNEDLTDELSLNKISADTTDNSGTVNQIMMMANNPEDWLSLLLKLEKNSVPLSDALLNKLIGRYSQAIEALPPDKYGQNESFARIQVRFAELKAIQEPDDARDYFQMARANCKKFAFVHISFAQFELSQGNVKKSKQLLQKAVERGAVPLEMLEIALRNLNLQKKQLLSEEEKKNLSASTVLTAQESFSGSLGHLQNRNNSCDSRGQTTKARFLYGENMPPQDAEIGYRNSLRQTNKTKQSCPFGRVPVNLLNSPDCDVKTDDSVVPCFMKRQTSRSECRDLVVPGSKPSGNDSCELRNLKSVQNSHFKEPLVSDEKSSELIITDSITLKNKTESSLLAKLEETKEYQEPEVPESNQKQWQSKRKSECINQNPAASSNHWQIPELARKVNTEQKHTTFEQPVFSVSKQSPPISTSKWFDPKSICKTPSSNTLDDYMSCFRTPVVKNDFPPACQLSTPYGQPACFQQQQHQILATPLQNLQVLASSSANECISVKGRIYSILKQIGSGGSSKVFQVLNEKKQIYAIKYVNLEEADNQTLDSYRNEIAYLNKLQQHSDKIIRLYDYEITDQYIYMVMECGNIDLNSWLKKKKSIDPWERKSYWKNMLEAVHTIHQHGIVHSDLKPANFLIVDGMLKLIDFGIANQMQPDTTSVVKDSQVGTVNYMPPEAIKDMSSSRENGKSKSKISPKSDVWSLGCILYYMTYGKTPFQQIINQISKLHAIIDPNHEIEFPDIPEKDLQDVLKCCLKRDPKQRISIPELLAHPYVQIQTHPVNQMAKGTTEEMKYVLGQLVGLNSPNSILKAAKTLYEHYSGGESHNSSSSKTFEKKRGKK
Sequence of Ephrin type-B receptor 4 (Homo sapiens) (P54760 whole entry, the tested form may be a part): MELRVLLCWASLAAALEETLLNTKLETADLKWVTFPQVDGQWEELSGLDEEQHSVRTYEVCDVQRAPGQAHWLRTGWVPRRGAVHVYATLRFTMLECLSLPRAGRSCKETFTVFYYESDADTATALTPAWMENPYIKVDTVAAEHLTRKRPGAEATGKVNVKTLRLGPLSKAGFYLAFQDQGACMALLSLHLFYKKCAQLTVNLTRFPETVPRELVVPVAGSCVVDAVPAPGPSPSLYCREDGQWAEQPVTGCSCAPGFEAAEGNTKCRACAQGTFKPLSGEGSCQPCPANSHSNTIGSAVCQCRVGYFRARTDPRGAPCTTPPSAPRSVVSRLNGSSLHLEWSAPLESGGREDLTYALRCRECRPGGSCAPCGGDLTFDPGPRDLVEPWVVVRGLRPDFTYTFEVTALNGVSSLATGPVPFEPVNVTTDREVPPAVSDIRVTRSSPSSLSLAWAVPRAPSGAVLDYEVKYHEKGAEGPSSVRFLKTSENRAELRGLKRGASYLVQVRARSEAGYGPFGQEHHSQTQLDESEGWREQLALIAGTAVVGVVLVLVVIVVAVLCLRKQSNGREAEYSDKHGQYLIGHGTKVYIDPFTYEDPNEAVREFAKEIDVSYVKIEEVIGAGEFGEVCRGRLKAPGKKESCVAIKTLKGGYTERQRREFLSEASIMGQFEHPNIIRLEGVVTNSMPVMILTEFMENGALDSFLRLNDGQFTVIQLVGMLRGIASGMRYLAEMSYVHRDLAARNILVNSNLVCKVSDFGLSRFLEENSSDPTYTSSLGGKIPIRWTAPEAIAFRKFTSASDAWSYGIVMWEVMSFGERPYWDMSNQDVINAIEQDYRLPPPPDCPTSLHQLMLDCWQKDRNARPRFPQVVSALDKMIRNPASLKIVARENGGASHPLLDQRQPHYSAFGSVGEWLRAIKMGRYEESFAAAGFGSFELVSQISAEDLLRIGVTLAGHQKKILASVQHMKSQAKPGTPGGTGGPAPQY
Sequence of Mitogen-activated protein kinase kinase kinase 9 (Homo sapiens) (P80192 whole entry, looked up, the tested form may be a part): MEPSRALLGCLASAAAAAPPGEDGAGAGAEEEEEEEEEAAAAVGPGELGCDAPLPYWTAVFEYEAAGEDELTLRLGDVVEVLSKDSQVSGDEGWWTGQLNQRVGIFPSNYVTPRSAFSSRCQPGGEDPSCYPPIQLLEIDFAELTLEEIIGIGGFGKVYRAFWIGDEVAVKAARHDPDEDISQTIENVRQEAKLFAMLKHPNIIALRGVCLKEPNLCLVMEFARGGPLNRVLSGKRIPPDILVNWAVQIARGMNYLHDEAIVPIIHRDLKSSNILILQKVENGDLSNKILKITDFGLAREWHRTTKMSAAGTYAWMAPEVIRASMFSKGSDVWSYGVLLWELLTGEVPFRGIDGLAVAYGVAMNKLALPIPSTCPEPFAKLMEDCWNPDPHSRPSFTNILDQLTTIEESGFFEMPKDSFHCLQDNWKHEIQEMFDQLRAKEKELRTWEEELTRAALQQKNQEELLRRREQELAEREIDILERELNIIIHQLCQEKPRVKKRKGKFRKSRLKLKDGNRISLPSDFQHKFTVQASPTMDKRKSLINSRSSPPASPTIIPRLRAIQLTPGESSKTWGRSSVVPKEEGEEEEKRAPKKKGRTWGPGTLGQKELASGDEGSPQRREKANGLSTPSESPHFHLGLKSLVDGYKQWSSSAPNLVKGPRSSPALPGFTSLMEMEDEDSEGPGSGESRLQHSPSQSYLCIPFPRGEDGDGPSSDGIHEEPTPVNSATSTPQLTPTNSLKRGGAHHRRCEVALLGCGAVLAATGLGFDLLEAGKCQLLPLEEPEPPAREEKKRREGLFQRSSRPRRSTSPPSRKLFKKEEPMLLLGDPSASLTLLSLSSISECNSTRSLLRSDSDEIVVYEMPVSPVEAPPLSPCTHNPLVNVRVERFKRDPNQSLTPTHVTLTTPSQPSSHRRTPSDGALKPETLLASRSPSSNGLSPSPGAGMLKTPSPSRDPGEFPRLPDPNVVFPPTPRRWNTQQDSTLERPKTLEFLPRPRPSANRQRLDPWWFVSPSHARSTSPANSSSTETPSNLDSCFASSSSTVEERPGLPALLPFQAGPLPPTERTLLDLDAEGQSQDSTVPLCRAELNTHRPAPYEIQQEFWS
Sequence of Dual specificity mitogen-activated protein kinase kinase 6 (Homo sapiens) (P52564 whole entry, the tested form may be a part): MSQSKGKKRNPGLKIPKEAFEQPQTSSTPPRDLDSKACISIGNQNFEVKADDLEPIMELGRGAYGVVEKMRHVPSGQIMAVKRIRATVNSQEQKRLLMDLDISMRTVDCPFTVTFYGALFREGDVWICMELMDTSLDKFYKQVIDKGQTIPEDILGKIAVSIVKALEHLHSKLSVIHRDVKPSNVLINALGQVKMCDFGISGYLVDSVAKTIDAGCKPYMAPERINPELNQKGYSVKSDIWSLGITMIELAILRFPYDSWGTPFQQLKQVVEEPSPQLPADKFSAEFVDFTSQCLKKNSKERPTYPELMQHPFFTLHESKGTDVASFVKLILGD

CCCCc1cc(-c2c[nH]c3ncc(-c4cnn(C5CCNCC5)c4)cc23)nc(N)n1 was tested, and the Ratio IC50 [1] was 30 and the Activity (MAPK3 (ERK1)) was -32%.

For CCCCc1cc(-c2c[nH]c3ncccc23)nc(N)n1, the Activity [2] was 4%.

In the case of Nc1nccc(-c2c[nH]c3ncccc23)n1 [MERIOLIN 1], the Activity [3] is reported as -25%, the Activity [4] is reported as -26% and the Activity [5] is reported as -23%. The Activity [6] was -78%, the Activity [7] was -34% and the Activity [8] was -13%. For the same compound, the Activity [9] was -20%, the Activity [10] was -35% and the Activity [2] was -2%. The Activity [11] was -23%, the Activity [12] was -14% and the Activity [13] was -30%. The Activity [14] was -57%, the Activity [15] was -4% and the Activity [16] was 1%. The Activity [17] was -4%, the Activity [18] was -28% and the Activity [19] was -9%. For the same compound, the Activity [20] was -10%, the Activity [21] was 4% and the Activity [22] was -17%. It also gave an Activity [23] of -75%.
